Data: ChEMBL document CHEMBL4196200 (J Med Chem, 2018)
≈ marks a conversion by molar mass, not a printed value. Calls of active or inactive are those of the source. The rule behind the calls is not given here.

Assays:
[1] = tested on: Mus musculus; experiment: Improvement in social interaction in Oprm1-/- mouse model of autism spectrum disorders assessed as restoration of time spent in nose contacts at 10 mg/kg, ip pre-treated before open-field test for 10 mins; type: functional, organism-based
[2] = tested on: Mus musculus; experiment: Improvement in social interaction in Oprm1-/- mouse model of autism spectrum disorders assessed as suppression of grooming episodes occurring after social contact at 20 mg/kg, ip pre-treated before open-field test for 10 mins; type: functional, organism-based
[3] = tested on: Mus musculus; experiment: Effect on social interaction in Oprm1+/+ mouse model of autism spectrum disorders assessed as increase in number of following episodes at 10 mg/kg, ip pre-treated before open-field test for 10 mins; type: ADME, organism-based; conditions: in vivo
[4] = tested on: Mus musculus; experiment: Improvement in social interaction in Oprm1-/- mouse model of autism spectrum disorders assessed as restoration of number of following episodes at 10 mg/kg, ip pre-treated before open-field test for 10 mins; type: functional, organism-based
[5] = molecular target: T1, Oxytocin receptor (Homo sapiens) (UniProt P30559); experiment: Agonist activity at human OTR receptor expressed in HEK293FT cells incubated for 30 mins by beta-arrestin recruitment assay relative to OT; type: functional, cell-based
T1 sequence (whole entry): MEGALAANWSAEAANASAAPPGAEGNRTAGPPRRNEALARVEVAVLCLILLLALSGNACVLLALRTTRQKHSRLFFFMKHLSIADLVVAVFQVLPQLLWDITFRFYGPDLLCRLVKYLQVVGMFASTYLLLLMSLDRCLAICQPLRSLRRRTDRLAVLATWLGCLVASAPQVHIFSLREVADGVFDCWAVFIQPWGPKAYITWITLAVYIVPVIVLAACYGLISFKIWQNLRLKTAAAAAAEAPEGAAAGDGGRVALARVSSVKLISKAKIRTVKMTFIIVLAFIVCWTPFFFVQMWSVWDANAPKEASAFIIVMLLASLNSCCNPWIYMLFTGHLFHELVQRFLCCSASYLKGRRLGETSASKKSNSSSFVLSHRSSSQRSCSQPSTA

[6] = tested on: Mus musculus; experiment: Improvement in social interaction in Oprm1-/- mouse model of autism spectrum disorders assessed as restoration of number of nose contacts at 10 mg/kg, ip pre-treated before open-field test for 10 mins; type: functional, organism-based
[7] = Thermodynamic solubility in pH 7.4 buffer; type: physicochemical; conditions: read-out: Therm_solubility
[8] = tested on: Mus musculus; experiment: (§1) Effect on social interaction in Oprm1+/+ mouse model of autism spectrum disorders assessed as mean duration of nose contacts at 10 mg/kg, ip pre-treated before open-field test for 10 mins; type: ADME, organism-based; conditions: in vivo
[9] = tested on: Mus musculus; experiment: Improvement in social interaction in Oprm1-/- mouse model of autism spectrum disorders assessed as restoration of number of nose contacts at 20 mg/kg, ip pre-treated before open-field test for 10 mins; type: functional, organism-based
[10] = molecular target: T2, Vasopressin V2 receptor (Homo sapiens, UniProt P30518); experiment: Agonist activity at human V2 receptor expressed in HEK293FT cells assessed as stimulation of calcium release by Aequorin based assay relative to AVP; type: functional, cell-based
[11] = tested on: Mus musculus; experiment: Effect on social interaction in Oprm1+/+ mouse model of autism spectrum disorders assessed as number of nose contacts at 10 mg/kg, ip pre-treated before open-field test for 10 mins; type: ADME, organism-based; conditions: in vivo
[12] = molecular target: T3, Oxytocin receptor (Mus musculus, UniProt P97926); experiment: Agonist activity at mouse OTR receptor expressed in HEK293FT cells assessed as stimulation of calcium release by Aequorin based assay; type: functional, cell-based
T3 sequence (P97926 whole entry): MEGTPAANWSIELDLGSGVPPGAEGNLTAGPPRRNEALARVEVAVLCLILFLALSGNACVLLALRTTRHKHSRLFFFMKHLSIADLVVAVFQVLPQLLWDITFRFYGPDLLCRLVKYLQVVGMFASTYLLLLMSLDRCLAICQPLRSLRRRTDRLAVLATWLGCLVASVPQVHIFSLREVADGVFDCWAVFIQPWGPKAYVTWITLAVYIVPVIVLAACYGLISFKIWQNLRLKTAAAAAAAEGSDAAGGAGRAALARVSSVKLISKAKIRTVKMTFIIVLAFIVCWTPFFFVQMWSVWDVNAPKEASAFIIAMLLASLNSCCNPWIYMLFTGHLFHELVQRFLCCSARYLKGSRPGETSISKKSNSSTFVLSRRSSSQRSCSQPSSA

[13] = tested on: Mus musculus; experiment: Improvement in social interaction in Oprm1-/- mouse model of autism spectrum disorders assessed as suppression of grooming episodes occurring after social contact at 10 mg/kg, ip pre-treated before open-field test for 10 mins; type: functional, organism-based
[14] = tested on: Mus musculus; experiment: Improvement in social interaction in Oprm1-/- mouse model of autism spectrum disorders assessed as restoration of mean duration of nose contacts at 10 mg/kg, ip pre-treated before open-field test for 10 mins; type: functional, organism-based
[15] = tested on: Mus musculus; experiment: (§2) Effect on social interaction in Oprm1+/+ mouse model of autism spectrum disorders assessed as time spent in nose contacts at 10 mg/kg, ip pre-treated before open-field test for 10 mins; type: ADME, organism-based; conditions: in vivo
[16] = molecular target: T4, Vasopressin V1b receptor (Homo sapiens, UniProt P47901); experiment: Antagonist activity at human V1b receptor expressed in HEK293FT cells assessed as inhibition of AVP-induced calcium release by Aequorin based assay; type: functional, cell-based
T4 sequence (P47901 whole entry): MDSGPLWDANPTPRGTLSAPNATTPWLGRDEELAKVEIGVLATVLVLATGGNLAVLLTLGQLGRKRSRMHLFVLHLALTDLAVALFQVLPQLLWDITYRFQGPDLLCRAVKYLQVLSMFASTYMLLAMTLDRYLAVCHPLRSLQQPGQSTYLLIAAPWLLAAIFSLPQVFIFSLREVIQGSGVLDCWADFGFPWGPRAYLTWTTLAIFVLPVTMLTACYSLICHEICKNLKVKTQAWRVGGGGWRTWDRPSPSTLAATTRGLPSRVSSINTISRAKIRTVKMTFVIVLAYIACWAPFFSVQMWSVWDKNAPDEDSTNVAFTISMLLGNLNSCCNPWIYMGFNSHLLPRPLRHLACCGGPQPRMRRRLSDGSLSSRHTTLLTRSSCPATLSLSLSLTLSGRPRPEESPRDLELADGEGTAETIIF

[17] = Lipophilicity, log D of the compound; type: physicochemical; conditions: octanol/water
[18] = tested on: Mus musculus; experiment: Effect on social interaction in Oprm1+/+ mouse model of autism spectrum disorders assessed as grooming episodes occurring after social contact at 10 mg/kg, ip pre-treated before open-field test for 10 mins; type: ADME, organism-based; conditions: in vivo
[19] = molecular target: T1, Oxytocin receptor (Homo sapiens); experiment: Agonist activity at human OTR receptor expressed in HEK293FT cells assessed as stimulation of calcium release by Aequorin based assay relative to OT; type: functional, cell-based
[20] = molecular target: T4, Vasopressin V1b receptor
Description: Agonist activity at human V1b receptor expressed in HEK293FT cells incubated for 30 mins by beta-arrestin recruitment assay

[21] = molecular target: T5, Oxytocin receptor (Homo sapiens, UniProt P30559); experiment: Agonist activity at human OTR receptor expressed in HEK293FT cells incubated for 30 mins by beta-arrestin recruitment assay; type: functional, cell-based
T5 sequence (P30559 whole entry): T1 sequence (whole entry)

[22] = molecular target: T2, Vasopressin V2 receptor; experiment: Displacement of DY647 from SNAP-tagged V2 receptor (unknown origin) expressed in HEK293 cells by TR-FRET assay; type: cell-based
[23] = tested on: Mus musculus; experiment: as §1; type: ADME, organism-based; conditions: in vivo; remark: listed apart in the source
[24] = tested on: Mus musculus; experiment: as §2; type: ADME, organism-based; conditions: in vivo; remark: listed apart in the source
[25] = tested on: Mus musculus; experiment: Improvement in social interaction in Oprm1-/- mouse model of autism spectrum disorders assessed as restoration of mean duration of nose contacts at 20 mg/kg, ip pre-treated before open-field test for 10 mins; type: functional, organism-based

T2 sequence (P30518 whole entry): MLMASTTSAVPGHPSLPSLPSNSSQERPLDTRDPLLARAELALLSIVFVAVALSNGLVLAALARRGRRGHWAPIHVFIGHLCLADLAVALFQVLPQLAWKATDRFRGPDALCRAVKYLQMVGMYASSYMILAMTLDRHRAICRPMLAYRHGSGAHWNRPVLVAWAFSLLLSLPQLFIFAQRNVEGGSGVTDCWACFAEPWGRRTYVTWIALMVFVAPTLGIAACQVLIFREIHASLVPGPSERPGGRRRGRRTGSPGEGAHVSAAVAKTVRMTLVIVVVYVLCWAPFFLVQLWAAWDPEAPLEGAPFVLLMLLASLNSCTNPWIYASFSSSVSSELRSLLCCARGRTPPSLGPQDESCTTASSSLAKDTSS

Emax [5]: 77% | solubility thermodynamic [7]: 680 µM (≈ 362 µg/mL) | Emax [10]: 101% | EC50 [12]: 18 nM | IC50 [16]: Not Active | logD [17]: 2 | Emax [19]: 96% | EC50 [20]: Not Active | EC50 [21]: 62 nM | Ki [22]: 1670 nM
SMILES: Cc1cc(C(=O)N2Cc3cnn(C)c3Nc3ccccc32)ccc1CNC(=O)N1CCC[C@H]1C(=S)N(C)C
Activity [1]: Active | Activity [2]: inactive | Activity [3]: Toxic | Activity [4]: Active | Activity [6]: Active | Activity [8]: Toxic | Activity [9]: inactive | Activity [11]: Toxic | Activity [13]: Active | Activity [14]: Active | Activity [15]: Toxic | Activity [18]: Non-Toxic | Activity [23]: Non-Toxic | Activity [24]: Non-Toxic | Activity [25]: inactive
